Entries after “also recorded” stand apart in the source; their conditions may differ. Where two headings read alike, the source gives them in different places.
Legend:
[1] = system: atherosclerosis in New Zealand white rabbit on high fat diet; details: for atherosclerosis Grade: individual animals; for high density lipoprotein cholesterin (HDL-C) Increase / high density lipoprotein cholesterin (HDL-C) Increase (%) / high density lipoprotein cholesterin (HDL-C) Wk 0 / high density lipoprotein cholesterin (HDL-C) Wk 19 / ligh density lipoprotein cholesterin (LDL-C) Increase / ligh density lipoprotein cholesterin (LDL-C) Increase (%) / ligh density lipoprotein cholesterin (LDL-C) Wk0 / ligh density lipoprotein cholesterin (LDL-C) Wk 19 / total cholesterol (TC) Increase / total cholesterol (TC) Increase (%) / total cholesterol (TC) Wk0 / total cholesterol (TC) Wk 19 / total triglyceride (TG) Increase / total triglyceride (TG) Increase (%) / total triglyceride (TG) Wk 0 / total triglyceride (TG) Wk 19: serum
Description: New Zealand rabbits were adopted in this animal study and divided into 5 groups. They were high dose, medium dose and low dose of treatment, positive and vehicle control. The treatment groups were given APOAI via auricular vein once a week. […] Positive controls were given Liptor daily by p.o. with a dose of 0.45 mg/kg body weight. […] The study duration was 19 weeks. At the end of study, all animals were sacrificed. […] Lipid content was examined in liver and aorta. And liver index was also determined.
The body weight was between 1.8-2.0 kg. The animals were quarantined for 5-10 days with normal diet before study.
Animals were randomly divided into 5 groups including vehicle control, high dose, medium dose, low dose and positive control group. Ten to 14 rabbits were in one group. Each rabbit was fed with 30 gram of high fat diet followed by 120 gram of normal diet with free access to water.
The frequency of dosing was once a week. Dose was 80, 40, 20 mg/kg body weight respectively. Drug was given by intravenous injection via auricular vein with the volume of 5 mL.
5.1 body weight: body weight of each rabbit was determined once a week.
Resulted blood samples were kept still for 2 hours and then spin with 4,000 rpm for 10 min.
Abdomen cavity was opened. Whole blood was taken from heart. Heart was harvested along with 7 cm of aorta.
The aorta was dissected for 0.5 cm from aortic arch, split longitudinally and then kept in cryo-preservation tube for later lipid analysis. One piece of this sample was fixed in formalin for further pathological analysis.
The weight of liver was determined immediately. Two pieces of specimen were cut from hepatic lobe.
Resulted blood samples were kept still for 2 hours.
The aorta was dissected and opened for 7.5 cm from aortic arch longitudinally. Pictures were taken and atherosclerosis changing was analyzed.

[2] = system: SK-OV-3-luc ovarian cancer; assay: Ovarian cancer survival in mice; type: in vivo; details: group mean, study still ongoing
Description: Ovarian cancer study has been conducted at Wuxi AppTec under Dr. Yong Cang and the study is still ongoing as of Aug. 4, 2013. However in order to show the comparison mean days of the death of the mice in each group to compare with the positive drug group which has 76.8 days.
Bioluminescent images of RAAS-20120628-SK-OV-3-luc for all groups.
At day 63 after ovarian cancer has started an experiment of Kieu Hoang AFCC TM by oral application of four mice left from the entire group. That means that by day 63 ovarian cancer has already developed. In the beginning we forced the mice to drink without water, therefore the mice died in early stage.

[3] = system: atherosclerosis in APOE KO mice; type: in vivo
[4] = system: atherosclerosis in LDLR KO mice; assay: Efficacy of AFOD RAAS 1 (APOA1) on atherosclerosis, LDLR KO mice; type: in vivo

With human Apolipoprotein AI [APOAI] the “Lipid content in aorta: HDL-C” value ([1]; High dose) was 0.111 ± 0.057, the “Lipid content in aorta: LDL-C” value ([1]; High dose) was 0.318 ± 0.05 and the “Lipid content in aorta: TC” value ([1]; High dose) was 0.29 ± 0.098. The “Lipid content in aorta: TG” value ([1]; High dose) was 0.402 ± 0.101, the “Lipid content in liver: HDL-C” value ([1]; High dose) was 0.825 ± 0.129 and the “Lipid content in liver: LDL-C” value ([1]; High dose) was 2.302 ± 0.054. The “Lipid content in liver: TC” value ([1]; High dose) was 2.841 ± 0.298, the “Lipid content in liver: TG” value ([1]; High dose) was 1.3 ± 0.171 and the “TG content in liver vs vehicle control” value ([1]; High dose) was “significantly lower”. For the same substance, the “Lipid content in aorta: HDL-C” value ([1]; Low dose) was 0.092 ± 0.066, the “Lipid content in aorta: LDL-C” value ([1]; Low dose) was 0.254 ± 0.078 and the “Lipid content in aorta: TC” value ([1]; Low dose) was 0.28 ± 0.047. The “Lipid content in aorta: TG” value ([1]; Low dose) was 0.337 ± 0.055, the “Lipid content in liver: HDL-C” value ([1]; Low dose) was 0.803 ± 0.236 and the “Lipid content in liver: LDL-C” value ([1]; Low dose) was 1.857 ± 0.559. For the same substance, the “Lipid content in liver: TC” value ([1]; Low dose) was 2.95 ± 0.809, the “Lipid content in liver: TG” value ([1]; Low dose) was 1.369 ± 0.251 and the “Lipid content in aorta: HDL-C” value ([1]; Middle dose) was 0.128 ± 0.064. The “Lipid content in aorta: LDL-C” value ([1]; Middle dose) was 0.307 ± 0.043, the “Lipid content in aorta: TC” value ([1]; Middle dose) was 0.332 ± 0.135 and the “Lipid content in aorta: TG” value ([1]; Middle dose) was 0.388 ± 0.124. For the same substance, the “Lipid content in liver: HDL-C” value ([1]; Middle dose) was 0.815 ± 0.249, the “Lipid content in liver: LDL-C” value ([1]; Middle dose) was 1.407 ± 0.418 and the “Lipid content in liver: TC” value ([1]; Middle dose) was 2.214 ± 0.515. The “Lipid content in liver: TG” value ([1]; Middle dose) was 1.081 ± 0.31, the “liver and aorta of sacrificed animal” value ([1]; after 12 weeks of high fat diet, 1 animal) was “no abnormal change” and the “HDL-C vs vehicle control” value ([1]; all treatment groups) was “significantly high”. The “number of animals of Grade I” value ([1]; high dose group) was “Grade I: 0 animal;”, the “number of animals of Grade II” value ([1]; high dose group) was “Grade II: 5 animals;” and the “number of animals of Grade III” value ([1]; high dose group) was “Grade III: 0 animal;”. For the same substance, the “number of animals of Grade IV” value ([1]; high dose group) was “Grade IV: 3 animals”, the “atherosclerosis Grade” value ([1]; high dose group) was “II (grade II was between 25% to 50%); also recorded: IV (Grade IV was greater than 75%)” and the “TG content in liver vs vehicle control” value ([1]; low dose) was “significantly lower”. The “liver cellular swelling vs vehicle control” value ([1]; low dose) was “same in low dose group and vehicle control”, the “liver fat degeneration vs vehicle control” value ([1]; low dose) was “better” and the “pathological change of aorta vs vehicle control” value ([1]; low dose) was “no significant improvement”. The “number of animals of Grade I” value ([1]; low dose group) was “Grade I: 9 animals;”, the “number of animals of Grade II” value ([1]; low dose group) was “Grade II: 1 animal;” and the “number of animals of Grade III” value ([1]; low dose group) was “Grade III: 0 animal;”. The “number of animals of Grade IV” value ([1]; low dose group) was “Grade IV: 2 animals”, the “LDL-C content in liver vs vehicle control” value ([1]; medium dose) was “significantly lower” and the “TC content in liver vs vehicle control” value ([1]; medium dose) was “significantly lower”. The “TG content in liver vs vehicle control” value ([1]; medium dose) was “significantly lower”, the “area of atherosclerosis vs vehicle control” value ([1]; medium dose) was “significant less” and the “liver cellular swelling and fat degeneration vs vehicle control” value ([1]; medium dose) was “better”. The “number of animals of Grade I” value ([1]; medium dose group) was “Grade I: 6 animals;”, the “number of animals of Grade II” value ([1]; medium dose group) was “Grade II: 2 animals;” and the “number of animals of Grade III” value ([1]; medium dose group) was “Grade III: 0 animal;”. For the same substance, the “number of animals of Grade IV” value ([1]; medium dose group) was “Grade IV: 0 animal”, the “atherosclerosis Grade” value ([1]; medium dose group) was “I (grade I was less than 25%); also recorded: II (grade II was between 25% to 50%)” and the “pathological change of aorta vs vehicle control” value ([1]; medium dose, endothelium swelling, smooth muscle migrating, foam cell formation) was “better”. For the same substance, the “atherosclerosis change in Arteria carotis” value ([1]; rabbit, in vivo) was “no atherosclerosis change found”, the “calcification, pathological examination” value ([1]; rabbit, in vivo) was “no calcification found” and the “high density lipoprotein cholesterin (HDL-C) Increase” value ([1]; High dose (n = 8)) was 3.81 ± 2.025 mmol/L. The “high density lipoprotein cholesterin (HDL-C) Increase (%)” value ([1]; High dose (n = 8)) was 322.1%, the “high density lipoprotein cholesterin (HDL-C) Wk 0” value ([1]; High dose (n = 8)) was 1.183 ± 0.149 mmol/L and the “high density lipoprotein cholesterin (HDL-C) Wk 19” value ([1]; High dose (n = 8)) was 4.993 ± 2.018 mmol/L. For the same substance, the “ligh density lipoprotein cholesterin (LDL-C) Increase” value ([1]; High dose (n = 8)) was 13.18 ± 4.053 mmol/L, the “ligh density lipoprotein cholesterin (LDL-C) Increase (%)” value ([1]; High dose (n = 8)) was 1432.6% and the “ligh density lipoprotein cholesterin (LDL-C) Wk0” value ([1]; High dose (n = 8)) was 0.92 ± 0.324 mmol/L. The “ligh density lipoprotein cholesterin (LDL-C) Wk 19” value ([1]; High dose (n = 8)) was 14.1 ± 4.188 mmol/L, the “total cholesterol (TC) Increase” value ([1]; High dose (n = 8)) was 10.90 ± 2.66 mmol/L and the “total cholesterol (TC) Increase (%)” value ([1]; High dose (n = 8)) was 685.5%. For the same substance, the “total cholesterol (TC) Wk0” value ([1]; High dose (n = 8)) was 1.59 ± 0.48 mmol/L, the “total cholesterol (TC) Wk 19” value ([1]; High dose (n = 8)) was 12.49 ± 2.81 mmol/L and the “high density lipoprotein cholesterin (HDL-C) Increase” value ([1]; Low dose (n = 12)) was 3.04 ± 2.019 mmol/L. For the same substance, the “high density lipoprotein cholesterin (HDL-C) Increase (%)” value ([1]; Low dose (n = 12)) was 431.2%, the “high density lipoprotein cholesterin (HDL-C) Wk 0” value ([1]; Low dose (n = 12)) was 0.705 ± 0.246 mmol/L and the “high density lipoprotein cholesterin (HDL-C) Wk 19” value ([1]; Low dose (n = 12)) was 3.744 ± 2.14 mmol/L. For the same substance, the “ligh density lipoprotein cholesterin (LDL-C) Increase” value ([1]; Low dose (n = 12)) was 6.472 ± 4.468 mmol/L, the “ligh density lipoprotein cholesterin (LDL-C) Increase (%)” value ([1]; Low dose (n = 12)) was 783.5% and the “ligh density lipoprotein cholesterin (LDL-C) Wk0” value ([1]; Low dose (n = 12)) was 0.826 ± 0.279 mmol/L. The “ligh density lipoprotein cholesterin (LDL-C) Wk 19” value ([1]; Low dose (n = 12)) was 7.298 ± 4.60 mmol/L, the “total cholesterol (TC) Increase” value ([1]; Low dose (n = 12)) was 8.01 ± 4.87 mmol/L and the “total cholesterol (TC) Increase (%)” value ([1]; Low dose (n = 12)) was 755.6%. For the same substance, the “total cholesterol (TC) Wk0” value ([1]; Low dose (n = 12)) was 1.06 ± 0.27 mmol/L, the “total cholesterol (TC) Wk 19” value ([1]; Low dose (n = 12)) was 9.07 ± 4.92 mmol/L and the “total triglyceride (TG) Increase” value ([1]; Low dose (n = 12)) was 0.482 ± 0.839 mmol/L. The “total triglyceride (TG) Increase (%)” value ([1]; Low dose (n = 12)) was 61.3%, the “total triglyceride (TG) Wk 0” value ([1]; Low dose (n = 12)) was 0.786 ± 0.229 mmol/L and the “total triglyceride (TG) Wk 19” value ([1]; Low dose (n = 12)) was 1.267 ± 0.772 mmol/L. The “high density lipoprotein cholesterin (HDL-C) Increase” value ([1]; Medium dose (n = 9)) was 3.674 ± 2.413 mmol/L, the “high density lipoprotein cholesterin (HDL-C) Increase (%)” value ([1]; Medium dose (n = 9)) was 548.4% and the “high density lipoprotein cholesterin (HDL-C) Wk 0” value ([1]; Medium dose (n = 9)) was 0.67 ± 0.207 mmol/L. For the same substance, the “high density lipoprotein cholesterin (HDL-C) Wk 19” value ([1]; Medium dose (n = 9)) was 4.343 ± 2.439 mmol/L, the “ligh density lipoprotein cholesterin (LDL-C) Increase” value ([1]; Medium dose (n = 9)) was 5.297 ± 4.373 mmol/L and the “ligh density lipoprotein cholesterin (LDL-C) Increase (%)” value ([1]; Medium dose (n = 9)) was 499.7%. For the same substance, the “ligh density lipoprotein cholesterin (LDL-C) Wk0” value ([1]; Medium dose (n = 9)) was 1.06 ± 0.298 mmol/L, the “ligh density lipoprotein cholesterin (LDL-C) Wk 19” value ([1]; Medium dose (n = 9)) was 6.357 ± 4.475 mmol/L and the “total cholesterol (TC) Increase” value ([1]; Medium dose (n = 9)) was 8.505 ± 5.37 mmol/L. For the same substance, the “total cholesterol (TC) Increase (%)” value ([1]; Medium dose (n = 9)) was 453.0%, the “total cholesterol (TC) Wk0” value ([1]; Medium dose (n = 9)) was 1.77 ± 0.783 mmol/L and the “total cholesterol (TC) Wk 19” value ([1]; Medium dose (n = 9)) was 10.28 ± 5.82 mmol/L. The “total triglyceride (TG) Increase” value ([1]; Medium dose (n = 9)) was 1.488 ± 0.988 mmol/L, the “total triglyceride (TG) Increase (%)” value ([1]; Medium dose (n = 9)) was 226.8% and the “total triglyceride (TG) Wk 0” value ([1]; Medium dose (n = 9)) was 0.656 ± 0.191 mmol/L. For the same substance, the “total triglyceride (TG) Wk 19” value ([1]; Medium dose (n = 9)) was 2.144 ± 1.043 mmol/L, the blood lipid parameters ([1]; test article given along with high fat diet) was “no significant decrease in blood lipid parameters” and the liver index ([1]; treatment group vs vehicle) was “lower in treatment group, but there's no statistical difference found”. For the same substance, the “lipid content in aorta vs vehicle control” value ([1]; treatment groups) was “lower in treatment groups than that in vehicle control but there was no statistical significance”, the “Mean Survival Time” value [2] was 115.8 days and the “reduction and prevention of atherosclerosis” value ([3]; APOE KO mice) was “effective in the reduction and prevention of atherosclerosis”. For the same substance, the “pre-B HDL, western blot” value ([3]; after injection) was “increase of pre-B HDL”, the “antibody of APOA1 raised in mice” value ([3]; mouse, in vivo) was “no antibody of APOA1 raised” and the “reduction and prevention of atherosclerosis” value [4] was “effective in the reduction and prevention of atherosclerosis”.
